Entries after “also recorded” stand apart in the source; their conditions may differ. Like-named read-outs stand apart in the source and are kept apart here.
Tests used:
[1] = in vivo; cited from earlier work
red blood cells = details: cited from earlier work
Aqueous solubility = assay type: physicochemical; details: at physiologic pH
Source text: Aqueous solubility is a desirable characteristic of adjuvant-active saponins and aids in vaccine formulation and efficacy (Kensil, 1996). Unlike oil-based emulsions and mineral salt adjuvants which can denature antigens and prevent protective effects, saponins are non-denaturing adjuvants due to their high aqueous solubility. Their high water solubility also obviates extensive homogenation procedures required for emulsion-type adjuvants, permitting simple mixing of aqueous adjuvant and antigen solutions prior to immunization. […] Water-soluble O-glycosides of simple hydroxybenzaldehydes (e.g., helicin (31)) not only occur in nature but readily form stable Schiff-base derivatives as well (see, The Merck Index, 12th ed.; Merck & Co., Inc.: Whitehouse Station, N.J., 1996) The synthetically simpler succinate (VI) is also useful since succinic acid constitutes a simple 4-carbon isostere for the glucuronic acid moiety and has been used to impart triterpenes with aqueous solubility (see, Gottfried and Baxendale, U.S. Pat. No. 3,070,623, 1962).

[2] = cited from earlier work
sheep red blood cells = details: cited from earlier work

Compound | adjuvant activity [1] | hemolytic activity towards red blood cells (red blood cells) | aqueous solubility (Aqueous solubility) | critical micellar concentration in phosphate buffered saline [2] | critical micellar concentration in water [2] | concentrations causing no detectable hemolysis of sheep red blood cells (sheep red blood cells) | concentrations causing hemolysis of sheep red blood cells (sheep red blood cells) | concentrations causing hemolysis of sheep red blood cells (sheep red blood cells; sheep red blood cells)
C[C@@H]1CC[C@@]2(OC1)O[C@H]1[C@@H](O)[C@H]3[C@@H]4CC[C@H]5C[C@@H](O[C@@H]6O[C@H](CO)[C@H](O[C@@H]7O[C@H](CO)[C@@H](O)[C@H](O[C@@H]8OC[C@@H](O)[C@H](O)[C@H]8O)[C@H]7O[C@@H]7O[C@H](CO)[C@H](O)[C@H](O[C@@H]8O[C@H](CO)[C@@H](O)[C@H](O)[C@H]8O)[C@H]7O)[C@H](O)[C@H]6O)[C@H](O)C[C@]5(C)[C@H]4CC[C@]3(C)[C@H]1[C@@H]2C [digitonin] | adjuvant-inactive | highly hemolytic |  |  |  |  |  | 
O=Cc1cc(OCc2ccc(C(=O)O)cc2)ccc1O [isotucaresol] |  |  | sparingly soluble |  |  |  |  | 
QS-7 | potent adjuvants; also recorded: potent inducer of cell-mediated and humoral responses | non-hemolytic |  | ~0.07% | approximately 0.06% | ≤ 200000 ng/mL |  | 
QS-17 | potent adjuvants |  |  | 0.03 % (w/v) | 0.06 % (w/v) |  | ≥ 25000 ng/mL | 
QS-18 | potent adjuvants |  |  | 0.02 % (w/v) | 0.04 % (w/v) |  | ≥ 25000 ng/mL | 
QS-21 | potent adjuvants |  |  | ~0.02 % (w/v) | about 0.03 % (w/v) |  |  | ≥ 25000 ng/mL

Reference: US20030228279A1, “Compositions and methods for viral delivery” (Corixa Corporation, priority 2001, published 2003)
